Laboratory results from patent publication US11944112B2, “Stabilized steviol glycoside malonic acid esters” (CARGILL, INCORPORATED, priority 2020, dated 2024).
Where a SMILES comes first, the peptide text is derived from it.

Assay: Acid-stability at pH 1.7 (percent recovered by UHPLC/UV)
Assay type: physicochemical
Conditions: water pH 1.7, room temperature (about 22° C.)
Protocol: Acid-stability measurements were taken for samples of aspartame, SGMAs, and a combination of SGMAs with the stabilizer. […] Acid-stability was measured in water having a pH of 1.7. The concentration of the aspartame or the SGMAs in the samples during the testing was 0.1 to 10 wt %. The samples were stored at room temperature (nominally about 22° C.) and samples were taken periodically. The concentration of the aspartame, SGMAs, MCQAs and DCQAs, as the case may be, was measured by UHPLC/UV then divided by the original concentration to determine a percent recovered.
FIG. 1 illustrates the results for three samples—one had 3000 ppm (0.3 wt %) aspartame, another had 5 wt % SGMAs, and the third had 5 wt % each of the SGMAs and the stabilizer. Aspartame has limited solubility, but 3000 ppm is on par with concentrations of throw syrups used to make some diet carbonated soft drinks that have about 500 ppm of aspartame. […] After 14 days of storage, the concentration of aspartame was about 78% of the initial concentration; stated another way, about 22% of the aspartame was degraded. In the same 14 days, the concentration of SGMAs in the SGMA-only sample was about 67% of the initial concentration, a degradation of about 33%. That means the SGMA degradation was 50% higher than the aspartame degradation (33% vs 22%).

COC(=O)[C@H](Cc1ccccc1)NC(=O)[C@@H](N)CC(=O)O [aspartame] (H-Asp-Phe-OMe)
degradation after 14 days of storage: about 22%
concentration as percent of the initial concentration (percent recovered) after 14 days of storage (3000 ppm aspartame, 5 wt % SGMAs, or 5 wt % each SGMAs and stabilizer): about 78%
